Measured values: ChEMBL document CHEMBL1287786, “Synthesis, antimicrobial and antioxidant evaluation of quinolines and bis(indolyl)methanes” (2010)

Columns and labels:
Format in all cases: functional
Staphylococcus aureus = assay: Antibacterial activity against Staphylococcus aureus ATCC 25923 at 1000 ug/ml after 24 hrs by cup plate method; conditions: ATCC 25923, 24 h, read-out: IZ
Escherichia coli = assay: Antibacterial activity against Escherichia coli ATCC 25922 at 1000 ug/ml after 24 hrs by cup plate method; conditions: ATCC 25922, 24 h, read-out: IZ
Candida albicans = assay: Antifungal activity against Candida albicans ATCC 10231 at 1000 ug/ml after 24 hrs by cup plate method; conditions: ATCC 10231, 24 h, read-out: IZ
[1] = Antioxidant activity assessed as hydrogen peroxide radical scavenging activity by spectrophotometry relative to control; design: concentration or dose not given beside the values
[2] = Antioxidant activity assessed as hydrogen peroxide radical scavenging activity after 20 mins by spectrophotometry relative to control; design: concentration or dose not given beside the values
[3] = Antioxidant activity assessed as hydrogen peroxide radical scavenging activity after 10 mins by spectrophotometry relative to control; design: concentration or dose not given beside the values
[4] = system: Radical scavenging activity; assay: Antioxidant activity assessed as DPPH radical scavenging activity at 50 ug by spectrophotometry relative to control
[5] = Antioxidant activity assessed as hydrogen peroxide radical scavenging activity after 30 mins by spectrophotometry relative to control; design: concentration or dose not given beside the values
[6] = system: Radical scavenging activity; assay: Antioxidant activity assessed as DPPH radical scavenging activity at 1000 ug by spectrophotometry relative to control
[7] = Antioxidant activity assessed as hydrogen peroxide radical scavenging activity after 40 mins by spectrophotometry relative to control; design: concentration or dose not given beside the values
[8] = system: Radical scavenging activity; assay: Antioxidant activity assessed as DPPH radical scavenging activity at 500 ug by spectrophotometry relative to control

Structure (SMILES)	zone of inhibition at 1000 µg/mL (Staphylococcus aureus) [mm]	zone of inhibition at 1000 µg/mL (Escherichia coli) [mm]	zone of inhibition at 1000 µg/mL (Candida albicans) [mm]	Activity [1] [%]	Activity [2] [%]	Activity [3] [%]	Activity [4] [%]	Activity [5] [%]	Activity [6] [%]	Activity [7] [%]	Activity [8] [%]
Clc1ccc2nc(-c3ccccc3)cc(-c3ccccc3)c2c1	21	18	16	–	–	–	–	–	–	–	–
Brc1cccc(-c2cc(-c3ccccc3)c3ccccc3n2)c1	14	12	10	–	–	–	–	–	–	–	–
Clc1nc2ccccc2cc1C(c1c(-c2ccccc2)[nH]c2ccccc12)c1c(-c2ccccc2)[nH]c2ccccc12	18	15	18	84	80	83	2	73	35	68	12
CCn1c2ccccc2c2cc(C(c3c(-c4ccccc4)[nH]c4ccccc34)c3c(-c4ccccc4)[nH]c4ccccc34)ccc21	24	23	24	85	82	80	15	75	73	65	42
COc1cccc(-c2cc(-c3ccccc3)c3ccccc3n2)c1	21	23	14	–	–	–	–	–	–	–	–
Cc1cc(C(C)(C)C)c(O)c(C(C)(C)C)c1	–	–	–	92	83	86	–	82	–	80	–
Cc1cc(-c2ccccc2)nc2ccccc12	14	20	16	–	–	–	–	–	–	–	–
c1ccc(-c2[nH]c3ccccc3c2C(c2cccc3ccccc23)c2c(-c3ccccc3)[nH]c3ccccc23)cc1	23	16	10	93	82	84	25	77	76	71	58
Brc1cc2c(cc1C(c1c(-c3ccccc3)[nH]c3ccccc13)c1c(-c3ccccc3)[nH]c3ccccc13)OCO2	25	23	24	57	39	43	10	30	42	21	23
Cc1ccc(-c2cc(-c3ccccc3)c3cc(Cl)ccc3n2)cc1	22	22	23	–	–	–	–	–	–	–	–
c1ccc(-c2cc(-c3ccccc3)c3ccccc3n2)cc1	18	17	13	–	–	–	–	–	–	–	–
CCCCCc1ccc(-c2cc(C)c3ccccc3n2)cc1	21	18	18	–	–	–	–	–	–	–	–
C[C@@H]1[C@H](O)[C@@H](C)/C=C/C=C/C=C/C=C/C=C/C=C/C=C/[C@H](O[C@@H]2O[C@H](C)[C@@H](O)[C@H](N)[C@@H]2O)C[C@@H]2O[C@](O)(C[C@@H](O)C[C@@H](O)[C@H](O)CC[C@@H](O)C[C@@H](O)CC(=O)O[C@H]1C)C[C@H](O)[C@H]2C(=O)O [AMPHOTERICIN B]	–	–	20	–	–	–	–	–	–	–	–
c1ccc(-c2cc(-c3ccccn3)nc3ccccc23)cc1	23	18	18	–	–	–	–	–	–	–	–
Cn1c(C(c2c(-c3ccccc3)[nH]c3ccccc23)c2c(-c3ccccc3)[nH]c3ccccc23)cc2ccccc21	13	16	14	43	21	35	19	20	76	16	63
Cc1ccc(-c2cc(-c3ccccc3)c3ccccc3n2)cc1	24	17	19	–	–	–	–	–	–	–	–
CCCCc1cc(-c2ccccc2)c2ccccc2n1	20	19	15	–	–	–	–	–	–	–	–
Cc1ccc2nc(-c3cccc(Br)c3)cc(-c3ccccc3)c2c1	24	22	21	–	–	–	–	–	–	–	–
Cc1ccccc1-c1cc(-c2ccccc2)c2ccccc2n1	15	18	15	–	–	–	–	–	–	–	–
COc1cc(Br)c(C(c2c(-c3ccccc3)[nH]c3ccccc23)c2c(-c3ccccc3)[nH]c3ccccc23)cc1OC	12	14	16	86	74	85	21	72	69	69	52
COc1cc(C(c2c(-c3ccccc3)[nH]c3ccccc23)c2c(-c3ccccc3)[nH]c3ccccc23)cc(Br)c1O	22	24	26	82	74	81	27	71	70	65	64
c1ccc(-c2[nH]c3ccccc3c2C(c2ccc3c(c2)-c2ccccc2C3)c2c(-c3ccccc3)[nH]c3ccccc23)cc1	24	18	18	88	76	85	19	73	85	70	66
Clc1ccc(-c2nn(-c3ccccc3)cc2C(c2c(-c3ccccc3)[nH]c3ccccc23)c2c(-c3ccccc3)[nH]c3ccccc23)cc1	19	15	12	83	81	82	21	80	87	79	65
O=C1O[C@H]([C@@H](O)CO)C(O)=C1O	–	–	–	–	–	–	96	–	99	–	97
O=C(O)c1ccc(C(c2c(-c3ccccc3)[nH]c3ccccc23)c2c(-c3ccccc3)[nH]c3ccccc23)cc1	24	19	16	60	45	45	17	35	80	24	48
c1ccc(-c2ccc(C(c3c(-c4ccccc4)[nH]c4ccccc34)c3c(-c4ccccc4)[nH]c4ccccc34)cc2)cc1	26	26	25	87	75	83	22	70	75	59	55
